Experimental data as given in ChEMBL document CHEMBL1201862, “PubChem BioAssay data set” (2004).
Active and inactive are the calls of the source.

What was measured:
BJ [1] = test: cytotoxicity toward BJ-TERT fibroblasts, dose response, cell-based, RAS-independent, luminescence (AID 1933); assay type: functional; details: Homo sapiens
BJ [2] = test: cells; assay type: functional, cell-based; details: Homo sapiens
[3] = M. tuberculosis H37Rv growth inhibitors, H37Rv strain (AID 1626); assay type: functional
[4] = growth suppression of PTEN-null colon cells, dose response, cell-based, HCT116 PTEN knockout (AID 1047); assay type: functional;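 also: HCT116 colon tumor cells with PTEN knocked out; cells exposed to compound for 60 hours before readout; potency for loss of cell viability measured by luminescence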
[5] = growth suppression of beta-catenin-knockout colon cells, dose response, cell-based, HCT116, human colon tumor (AID 1045); assay type: functional;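 also: HCT116 colon tumor cells with beta catenin knocked out; cells exposed to compound for 60 hours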
BJ [6] = test: cytotoxicity toward BJ-TERT-LT-ST fibroblasts, dose response, cell-based, RAS-independent, luminescence (AID 1935); assay type: functional; details: Homo sapiens;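 also: BJ fibroblasts immortalized with TERT plus LT and ST oncogenes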
[7] = cytotoxicity toward DRD oncogenic fibroblasts, dose response, cell-based, non-viral oncogenic, luminescence (AID 1934); assay type: functional; details: Homo sapiens
[8] = Luminescence Cell-Based Dose Retest to Confirm Inhibitors of Cancer Stem Cells. [Related pubchem assays (depositor defined):AID2717, AID2721]; assay type: functional; details: Homo sapiens
[9] = target: T1, Endoribonuclease toxin MazF (Escherichia coli K-12, UniProt P0AE70); test: MazF toxin RNase activators, dose response, biochemical, fluorescence, single-stranded RNA substrate, uHTS hits (AID 588481); assay type: functional
T1 sequence (P0AE70 whole entry): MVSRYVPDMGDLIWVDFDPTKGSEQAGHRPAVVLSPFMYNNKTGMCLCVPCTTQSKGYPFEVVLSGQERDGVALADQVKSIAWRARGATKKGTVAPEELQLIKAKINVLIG

Vero [10] = test: cells; assay type: functional, cell-based; details: Chlorocebus sabaeus
[11] = target: T1, Endoribonuclease toxin MazF; test: fluorescent RNA oligo signal without MazF, dose response, counter-screen for MazEF activator project, biochemical, fluorescence, single-stranded RNase substrate (AID 588502); assay type: functional
Vero [12] = test: cells; assay type: functional; details: Chlorocebus sabaeus
[13] = target: Potassium voltage-gated channel subfamily KQT member 2 (Rattus norvegicus, UniProt O88943, W236L); test: KCNQ2 channel potentiators, dose response, mechanism study for KCNQ2 potentiator project, cell-based, automated electrophysiology (AID 2603); assay type: functional
Chain of Potassium voltage-gated channel subfamily KQT member 2 (O88943 whole entry W236L): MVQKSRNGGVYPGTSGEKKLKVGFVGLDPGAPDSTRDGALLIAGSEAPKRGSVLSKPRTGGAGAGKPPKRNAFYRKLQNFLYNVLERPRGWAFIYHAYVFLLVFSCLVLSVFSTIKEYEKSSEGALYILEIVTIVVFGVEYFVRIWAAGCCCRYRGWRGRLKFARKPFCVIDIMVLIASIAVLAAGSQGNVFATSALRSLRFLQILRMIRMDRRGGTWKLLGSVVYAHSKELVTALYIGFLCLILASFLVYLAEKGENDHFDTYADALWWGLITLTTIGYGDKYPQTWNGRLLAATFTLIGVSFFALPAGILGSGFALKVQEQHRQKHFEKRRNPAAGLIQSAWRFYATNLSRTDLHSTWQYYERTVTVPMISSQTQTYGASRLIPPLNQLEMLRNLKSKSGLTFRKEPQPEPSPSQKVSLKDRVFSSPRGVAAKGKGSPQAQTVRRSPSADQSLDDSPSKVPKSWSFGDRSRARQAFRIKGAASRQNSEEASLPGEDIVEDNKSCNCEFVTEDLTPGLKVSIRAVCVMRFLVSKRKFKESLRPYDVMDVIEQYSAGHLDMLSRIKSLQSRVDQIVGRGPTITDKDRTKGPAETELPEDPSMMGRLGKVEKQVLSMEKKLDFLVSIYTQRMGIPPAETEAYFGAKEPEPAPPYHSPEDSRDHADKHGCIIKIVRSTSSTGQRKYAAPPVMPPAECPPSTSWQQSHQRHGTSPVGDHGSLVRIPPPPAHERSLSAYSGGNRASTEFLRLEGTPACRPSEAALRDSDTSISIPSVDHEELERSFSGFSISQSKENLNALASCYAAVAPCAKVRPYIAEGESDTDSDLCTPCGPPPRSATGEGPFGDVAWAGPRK

[14] = target: T2, Replicative DNA helicase DnaB (Mycobacterium tuberculosis, UniProt P9WMR3); test: DnaB intein splicing inhibitors, dose response, biochemical, cell-free fluorescence (AID 449749); assay type: functional
T2 sequence (P9WMR3 whole entry): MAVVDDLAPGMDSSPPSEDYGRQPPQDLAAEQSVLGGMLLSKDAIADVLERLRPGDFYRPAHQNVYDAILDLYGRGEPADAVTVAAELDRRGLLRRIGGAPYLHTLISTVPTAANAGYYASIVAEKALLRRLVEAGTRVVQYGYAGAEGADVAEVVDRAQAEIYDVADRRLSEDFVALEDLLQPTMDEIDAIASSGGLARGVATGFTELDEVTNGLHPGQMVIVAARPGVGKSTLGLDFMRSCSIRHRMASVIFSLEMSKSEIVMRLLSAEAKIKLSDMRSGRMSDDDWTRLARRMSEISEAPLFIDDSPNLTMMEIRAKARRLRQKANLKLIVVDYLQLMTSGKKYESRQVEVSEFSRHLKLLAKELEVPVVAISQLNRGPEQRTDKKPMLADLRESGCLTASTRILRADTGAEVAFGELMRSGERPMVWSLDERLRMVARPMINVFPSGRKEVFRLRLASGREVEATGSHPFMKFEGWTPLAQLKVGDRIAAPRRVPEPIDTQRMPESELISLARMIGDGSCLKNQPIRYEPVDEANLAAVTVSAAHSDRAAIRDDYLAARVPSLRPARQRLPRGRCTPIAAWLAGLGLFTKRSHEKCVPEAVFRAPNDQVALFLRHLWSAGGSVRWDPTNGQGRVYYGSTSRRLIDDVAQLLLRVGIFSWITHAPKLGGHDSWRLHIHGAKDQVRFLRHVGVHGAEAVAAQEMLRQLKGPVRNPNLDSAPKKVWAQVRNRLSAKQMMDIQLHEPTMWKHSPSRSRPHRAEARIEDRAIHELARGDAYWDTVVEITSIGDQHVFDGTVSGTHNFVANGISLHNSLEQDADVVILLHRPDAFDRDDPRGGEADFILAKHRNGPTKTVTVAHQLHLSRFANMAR

Protein RecA = target: T3, Protein RecA (Mycobacterium tuberculosis, UniProt P9WHJ3); test: Fluorescence Cell-Free Homogeneous Dose Retest to Identify Inhibitors of RecA-Intein Splicing Activity. [Related pubchem assays (depositor defined):AID2097, AID2223, AID489010, AID492950]; assay type: functional
T3 sequence (P9WHJ3 whole entry): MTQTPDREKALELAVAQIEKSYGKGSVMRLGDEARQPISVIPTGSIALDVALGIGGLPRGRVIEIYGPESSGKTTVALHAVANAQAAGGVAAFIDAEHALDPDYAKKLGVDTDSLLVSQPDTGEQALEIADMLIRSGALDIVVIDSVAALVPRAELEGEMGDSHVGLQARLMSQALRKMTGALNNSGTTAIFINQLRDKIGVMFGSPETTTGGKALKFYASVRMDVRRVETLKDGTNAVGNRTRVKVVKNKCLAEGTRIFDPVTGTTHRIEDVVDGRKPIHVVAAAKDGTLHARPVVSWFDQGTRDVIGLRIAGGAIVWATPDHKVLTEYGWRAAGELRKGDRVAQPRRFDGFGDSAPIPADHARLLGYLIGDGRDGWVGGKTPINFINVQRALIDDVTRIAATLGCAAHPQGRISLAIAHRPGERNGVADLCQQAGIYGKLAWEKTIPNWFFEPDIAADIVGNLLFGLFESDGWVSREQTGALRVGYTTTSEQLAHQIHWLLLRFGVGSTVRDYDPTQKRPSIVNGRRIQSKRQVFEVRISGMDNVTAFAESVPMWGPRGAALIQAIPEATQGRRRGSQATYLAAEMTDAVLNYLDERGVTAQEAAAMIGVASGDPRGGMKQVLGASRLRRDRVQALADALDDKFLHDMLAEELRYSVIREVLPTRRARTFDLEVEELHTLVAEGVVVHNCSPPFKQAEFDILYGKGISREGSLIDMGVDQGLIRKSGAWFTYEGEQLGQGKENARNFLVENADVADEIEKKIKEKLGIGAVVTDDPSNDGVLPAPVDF

[15] = Shn3 3'UTR reporter inhibitors, dose response, cell-based, Clone20 osteoblasts, firefly luciferase, cherry-picked (AID 624132); assay type: functional;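 also: firefly luciferase luminescence from reporter carrying the Shn3 3'UTR in osteoblasts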
[16] = HepG2 cell cytotoxicity, dose response, cytotoxicity control for Shn3 inhibitor project, CellTiter-Glo, cherry-picked (AID 624134); assay type: functional, cell-based
[17] = control 3'UTR Renilla luciferase suppression, dose response, counter-screen for Shn3 inhibitor project, cell-based, Clone20-Shn3RL, cherry-picked (AID 624133); assay type: functional
[18] = target: T4, Hepatocyte nuclear factor 4-alpha (Homo sapiens, UniProt P41235); assay type: functional, cell-based;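 also: biochemical luminescence-based dose-response counterscreen measuring inhibition of HNF4 dimerization, run alongside a screen for blockers of ABHD5–perilipin-5 interaction; split luciferase complementation of HNF4 fusion proteins in cell lysate measuring dimerization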
T4 sequence (P41235 whole entry): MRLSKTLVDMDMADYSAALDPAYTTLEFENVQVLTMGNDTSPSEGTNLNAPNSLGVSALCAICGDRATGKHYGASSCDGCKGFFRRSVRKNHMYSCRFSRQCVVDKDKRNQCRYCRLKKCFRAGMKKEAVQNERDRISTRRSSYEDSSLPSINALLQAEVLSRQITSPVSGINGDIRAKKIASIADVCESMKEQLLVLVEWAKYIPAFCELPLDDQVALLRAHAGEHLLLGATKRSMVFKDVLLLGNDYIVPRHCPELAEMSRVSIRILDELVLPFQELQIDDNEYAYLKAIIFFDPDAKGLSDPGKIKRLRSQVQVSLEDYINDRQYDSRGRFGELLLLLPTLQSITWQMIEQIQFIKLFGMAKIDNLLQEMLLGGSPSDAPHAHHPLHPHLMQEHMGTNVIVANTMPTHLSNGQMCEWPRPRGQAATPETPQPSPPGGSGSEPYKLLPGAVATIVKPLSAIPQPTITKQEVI

[19] = target: Serine/threonine-protein phosphatase PP1-alpha catalytic subunit (Homo sapiens, UniProt P62136); test: PP1 phosphatase inhibitors, dose response, biochemical, fluorescence (AID 2394)
Chain of Serine/threonine-protein phosphatase PP1-alpha catalytic subunit (P62136 whole entry): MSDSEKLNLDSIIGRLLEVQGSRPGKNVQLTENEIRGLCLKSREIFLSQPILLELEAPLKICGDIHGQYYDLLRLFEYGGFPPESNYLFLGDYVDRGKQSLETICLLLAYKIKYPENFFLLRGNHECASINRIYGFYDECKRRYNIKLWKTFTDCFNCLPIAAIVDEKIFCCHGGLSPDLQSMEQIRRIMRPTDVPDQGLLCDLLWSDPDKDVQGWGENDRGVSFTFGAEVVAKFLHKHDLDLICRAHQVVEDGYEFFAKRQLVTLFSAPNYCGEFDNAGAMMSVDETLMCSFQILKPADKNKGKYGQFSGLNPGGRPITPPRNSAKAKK

[20] = target: Serine/threonine-protein phosphatase (Homo sapiens, UniProt Q9BPW0); test: PP5 phosphatase inhibitors, dose response, biochemical, fluorescence (AID 2395)
Chain of Serine/threonine-protein phosphatase (Q9BPW0 whole entry): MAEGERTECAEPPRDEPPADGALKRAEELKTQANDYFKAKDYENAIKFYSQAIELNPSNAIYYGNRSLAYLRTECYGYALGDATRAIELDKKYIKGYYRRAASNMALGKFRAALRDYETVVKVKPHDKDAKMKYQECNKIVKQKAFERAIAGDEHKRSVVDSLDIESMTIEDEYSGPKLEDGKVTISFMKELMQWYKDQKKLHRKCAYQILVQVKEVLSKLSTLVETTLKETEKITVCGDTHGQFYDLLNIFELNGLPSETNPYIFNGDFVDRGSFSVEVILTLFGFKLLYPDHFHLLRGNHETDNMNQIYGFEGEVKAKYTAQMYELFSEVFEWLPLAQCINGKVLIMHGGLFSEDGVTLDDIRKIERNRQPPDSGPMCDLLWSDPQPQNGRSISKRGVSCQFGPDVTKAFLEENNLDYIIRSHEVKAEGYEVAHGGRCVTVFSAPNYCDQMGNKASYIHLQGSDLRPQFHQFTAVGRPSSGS

[21] = cytotoxicity in HPDE-C7 cells, cell-based, fluorescence, HTS (AID 430); assay type: functional; details: Homo sapiens
[22] = target: T5, Mannose-6-phosphate isomerase (Homo sapiens, UniProt P34949); test: inhibitors of human PMI, primary screen, biochemical, fluorescence intensity, coupled assay (AID 1209)
T5 sequence (P34949 whole entry): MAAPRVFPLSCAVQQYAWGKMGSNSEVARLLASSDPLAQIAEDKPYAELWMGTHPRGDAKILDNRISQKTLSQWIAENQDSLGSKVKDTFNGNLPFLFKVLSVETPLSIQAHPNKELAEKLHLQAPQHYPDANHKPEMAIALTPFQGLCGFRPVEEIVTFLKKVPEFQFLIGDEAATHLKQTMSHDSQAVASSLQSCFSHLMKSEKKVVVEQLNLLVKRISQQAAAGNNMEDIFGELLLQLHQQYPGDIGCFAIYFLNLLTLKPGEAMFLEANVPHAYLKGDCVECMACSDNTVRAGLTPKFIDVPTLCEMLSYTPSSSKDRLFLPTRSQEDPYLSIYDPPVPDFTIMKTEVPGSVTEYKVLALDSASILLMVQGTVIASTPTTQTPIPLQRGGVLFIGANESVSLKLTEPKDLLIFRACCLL

[23] = cytotoxicity in KRAS-transformed pancreatic duct cells, primary screen, cell-based, fluorescence, HTS (AID 431); assay type: functional; details: Homo sapiens;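 also: cell line used: HPDE-C7K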
[24] = target: T5, Mannose-6-phosphate isomerase; test: human PMI inhibitors, high substrate, primary screen, biochemical, fluorescence intensity, high mannose 6-phosphate (AID 1220)
Nonstructural protein 1 = Nonstructural protein 1 (Influenza A virus, UniProt Q194T2); assay type: functional, Influenza A virus (A/California/07/2009(H1N1))
Chain of Nonstructural protein 1 (Q194T2 whole entry): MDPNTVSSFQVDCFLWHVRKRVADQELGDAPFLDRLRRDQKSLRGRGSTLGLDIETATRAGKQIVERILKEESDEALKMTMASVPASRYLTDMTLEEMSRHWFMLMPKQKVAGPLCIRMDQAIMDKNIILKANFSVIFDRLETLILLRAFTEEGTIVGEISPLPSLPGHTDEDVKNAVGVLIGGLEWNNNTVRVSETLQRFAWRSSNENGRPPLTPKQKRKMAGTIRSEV

Genome polyprotein = Genome polyprotein (dengue virus type 2, UniProt P29990); test: Dengue-2 NS5 methyltransferase inhibitors, primary screen, biochemical, confirmation dose response (AID 588689); assay type: functional
Chain of Genome polyprotein (P29990 2492-3391 limits assumed): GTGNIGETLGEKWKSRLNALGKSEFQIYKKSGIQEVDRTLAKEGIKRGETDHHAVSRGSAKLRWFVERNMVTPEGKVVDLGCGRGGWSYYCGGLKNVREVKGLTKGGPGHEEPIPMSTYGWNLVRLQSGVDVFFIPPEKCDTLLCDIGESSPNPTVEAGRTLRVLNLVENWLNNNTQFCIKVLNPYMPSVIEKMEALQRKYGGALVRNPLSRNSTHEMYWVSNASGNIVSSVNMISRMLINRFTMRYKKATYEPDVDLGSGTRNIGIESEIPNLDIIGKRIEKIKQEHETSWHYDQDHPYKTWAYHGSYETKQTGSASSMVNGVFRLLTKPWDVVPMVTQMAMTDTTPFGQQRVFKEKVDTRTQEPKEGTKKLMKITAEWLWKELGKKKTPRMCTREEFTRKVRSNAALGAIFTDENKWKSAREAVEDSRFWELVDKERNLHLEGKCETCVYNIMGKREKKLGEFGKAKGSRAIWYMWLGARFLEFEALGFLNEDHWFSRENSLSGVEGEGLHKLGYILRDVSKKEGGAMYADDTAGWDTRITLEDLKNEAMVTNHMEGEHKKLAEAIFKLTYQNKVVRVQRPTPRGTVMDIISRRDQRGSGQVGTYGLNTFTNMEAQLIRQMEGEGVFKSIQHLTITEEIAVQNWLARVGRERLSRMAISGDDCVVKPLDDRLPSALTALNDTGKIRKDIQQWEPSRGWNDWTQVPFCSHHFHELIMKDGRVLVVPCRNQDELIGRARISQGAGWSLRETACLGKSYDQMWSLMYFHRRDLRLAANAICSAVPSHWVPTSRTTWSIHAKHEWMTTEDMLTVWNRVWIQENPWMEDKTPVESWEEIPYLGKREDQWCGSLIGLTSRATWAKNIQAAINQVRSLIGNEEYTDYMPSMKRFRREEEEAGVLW

[25] = target: Sphingosine 1-phosphate receptor 2 (Homo sapiens, UniProt O95136); test: Dose Response Cell Based Assay for Agonists of the S1P2 Receptor of Purchased Analogues. [Related pubchem assays: 729, 843, 854, 736 ]; assay type: functional
Chain of Sphingosine 1-phosphate receptor 2 (O95136 whole entry): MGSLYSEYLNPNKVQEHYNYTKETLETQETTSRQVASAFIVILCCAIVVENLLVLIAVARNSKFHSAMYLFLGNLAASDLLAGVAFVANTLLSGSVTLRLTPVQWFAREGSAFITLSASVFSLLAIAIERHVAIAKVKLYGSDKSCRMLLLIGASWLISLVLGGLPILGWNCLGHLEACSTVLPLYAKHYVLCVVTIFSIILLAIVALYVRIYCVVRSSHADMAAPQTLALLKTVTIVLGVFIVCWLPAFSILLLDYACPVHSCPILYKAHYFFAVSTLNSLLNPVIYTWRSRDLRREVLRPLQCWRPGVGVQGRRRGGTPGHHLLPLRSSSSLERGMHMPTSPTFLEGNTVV

[26] = Luminescence-based dose response cell-based high throughput screening assay for cytotoxic compounds using the IEC-6 intestinal epithelial cell line. [Related pubchem assays: 1858 (Summary AID.), 1825 (Counterscreen.), 1907 (Confirmation screen.)]; assay type: functional
[27] = target: T6, Ubiquitin-conjugating enzyme E2 N (Homo sapiens, UniProt P61088); assay type: functional;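 also: Dose-response confirmation in a TR-FRET assay detecting UBC13-driven polyubiquitin chain formation, inhibition measured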
T6 sequence (P61088 whole entry): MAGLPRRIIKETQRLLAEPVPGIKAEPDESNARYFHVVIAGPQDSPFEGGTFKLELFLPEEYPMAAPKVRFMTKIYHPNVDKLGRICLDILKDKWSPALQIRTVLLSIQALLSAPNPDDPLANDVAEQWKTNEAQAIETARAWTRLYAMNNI

[28] = target: Transitional endoplasmic reticulum ATPase (Homo sapiens, UniProt P55072, C522A); test: Luminescence counterscreen assay for p97 inhibitors: dose response biochemical high throughput screening assay to identify inhibitors of the C522A mutant p97 ATPase: synthesized compounds. [Related pubchem assays: 1481, 1517, 1551 ]
Chain of Transitional endoplasmic reticulum ATPase (Homo sapiens, UniProt P55072, C522A) (P55072 2-806 C522A limits assumed): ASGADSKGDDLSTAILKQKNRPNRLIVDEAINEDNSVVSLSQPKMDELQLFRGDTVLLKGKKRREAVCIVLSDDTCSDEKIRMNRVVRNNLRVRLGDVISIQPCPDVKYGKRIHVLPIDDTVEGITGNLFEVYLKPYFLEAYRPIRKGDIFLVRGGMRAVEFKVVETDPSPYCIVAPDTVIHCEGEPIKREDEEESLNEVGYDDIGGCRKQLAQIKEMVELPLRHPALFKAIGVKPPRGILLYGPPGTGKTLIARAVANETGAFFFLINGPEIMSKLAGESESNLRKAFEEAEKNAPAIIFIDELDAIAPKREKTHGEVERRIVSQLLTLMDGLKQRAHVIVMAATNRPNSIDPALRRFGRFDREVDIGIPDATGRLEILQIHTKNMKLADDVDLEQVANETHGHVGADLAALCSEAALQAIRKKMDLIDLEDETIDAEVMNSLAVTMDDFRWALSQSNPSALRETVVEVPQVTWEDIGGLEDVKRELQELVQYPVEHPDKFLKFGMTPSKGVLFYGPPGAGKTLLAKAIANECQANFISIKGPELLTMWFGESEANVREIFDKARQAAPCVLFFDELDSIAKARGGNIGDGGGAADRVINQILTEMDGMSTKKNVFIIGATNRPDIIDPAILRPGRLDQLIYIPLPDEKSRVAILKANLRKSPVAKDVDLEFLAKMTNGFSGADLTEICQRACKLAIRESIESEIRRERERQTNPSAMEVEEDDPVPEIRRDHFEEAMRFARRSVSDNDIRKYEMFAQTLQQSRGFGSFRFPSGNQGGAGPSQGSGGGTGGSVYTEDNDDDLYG

[29] = target: Transitional endoplasmic reticulum ATPase (Homo sapiens, UniProt P55072); test: Luminescence dose response biochemical high throughput screening assay for inhibitors of the p97 ATPase: synthesized compounds. [Related pubchem assays: 1481, 1517 ]
Chain of Transitional endoplasmic reticulum ATPase (Homo sapiens, UniProt P55072) (P55072 whole entry): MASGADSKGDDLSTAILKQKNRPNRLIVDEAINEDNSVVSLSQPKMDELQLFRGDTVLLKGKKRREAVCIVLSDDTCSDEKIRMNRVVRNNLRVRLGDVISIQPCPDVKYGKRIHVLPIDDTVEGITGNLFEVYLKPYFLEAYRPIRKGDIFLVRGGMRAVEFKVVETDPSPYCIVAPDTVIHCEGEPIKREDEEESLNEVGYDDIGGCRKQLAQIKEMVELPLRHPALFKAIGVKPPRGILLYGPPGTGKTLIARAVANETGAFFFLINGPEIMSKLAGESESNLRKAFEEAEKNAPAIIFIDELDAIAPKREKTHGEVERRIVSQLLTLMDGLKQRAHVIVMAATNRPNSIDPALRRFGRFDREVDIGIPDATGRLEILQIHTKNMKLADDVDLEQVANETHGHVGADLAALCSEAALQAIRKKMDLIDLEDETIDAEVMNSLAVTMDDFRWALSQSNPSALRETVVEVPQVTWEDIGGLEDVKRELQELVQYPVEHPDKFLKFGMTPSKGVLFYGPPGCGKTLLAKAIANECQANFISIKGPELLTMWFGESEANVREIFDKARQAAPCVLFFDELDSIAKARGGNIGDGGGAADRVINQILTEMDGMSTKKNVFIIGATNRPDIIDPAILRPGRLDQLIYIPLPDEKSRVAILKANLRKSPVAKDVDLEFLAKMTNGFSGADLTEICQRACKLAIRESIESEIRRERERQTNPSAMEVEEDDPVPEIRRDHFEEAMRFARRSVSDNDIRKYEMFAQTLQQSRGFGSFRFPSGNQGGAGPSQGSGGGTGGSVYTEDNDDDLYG

Q: For `Cc1cccc(-n2c(/C=C/c3ccc([N+](=O)[O-])o3)nc3ccccc3c2=O)c1`, which EC50 (BJ [1]) is on record?
A: 5.28 µM (inconclusive)

Q: And the EC50 (BJ [2])?
A: 4.86 µM (inconclusive)

Q: What about the IC50 [3] of the same compound?
A: > 100 µM (active)

Q: What about the EC50 [4] of the same compound?
A: 0.552 µM (active)

Q: What about the EC50 [5] of the same compound?
A: 0.61 µM (active)

Q: What about the EC50 (BJ [6]) of the same compound?
A: 3.69 µM (inconclusive)

Q: And the EC50 [7]?
A: 5.82 µM (active)

Q: And the AC50 [8]?
A: 1.72 µM (active)

Q: What about the EC50 [9] of the same compound?
A: > 99 µM (inactive)

Q: And the IC50 (Vero [10])?
A: 10.8 µM (active)

Q: What about the EC50 [11] of the same compound?
A: 8.27 µM (active)

Q: What about the CC50 (Vero [12]) of the same compound?
A: > 25 µM (active)

Q: For `Cc1nnc(NC(=O)c2nc(S(=O)(=O)Cc3ccccc3C)ncc2Cl)s1`, which EC50 [13] is on record?
A: 692 µM (active)

Q: And the AC50 [14]?
A: > 380 µM (inactive)

Q: And the EC50 (Protein RecA)?
A: > 380 µM (inactive)

Q: What about the AC50 [15] of the same compound?
A: 0.812 µM (active)

Q: And the AC50 [16]?
A: 57 µM (active)

Q: And the AC50 [17]?
A: 14.5 µM (active)

Q: And the IC50 [18]?
A: 4.41 µM (active)

Q: With `CCOC(=O)c1nn(-c2ccc(C)cc2)c(=O)c2c(N)scc12` as the compound, how does the IC50 [19] read?
A: > 67 µM (not active)

Q: And the IC50 [20]?
A: 9.99 µM (active)

Q: And the AC50 [14]?
A: 89.9 µM (active)

Q: What about the EC50 (Protein RecA) of the same compound?
A: 11.4 µM (active)

Q: Which EC50 [21] does the source give for `Cc1coc2c(O)cc3c(c12)OC1(N2CCCCC2)C(=O)NCCCC31` (centres undefined) here?
A: 11 µM (active)

Q: And the IC50 [22]?
A: 35.2 µM (active)

Q: What about the EC50 [23] of the same compound?
A: 11.3 µM (active)

Q: And the IC50 [24]?
A: > 50 µM (not active)

Q: What about the IC50 (Nonstructural protein 1) of the same compound?
A: > 100 µM (active)

Q: And the IC50 (Genome polyprotein)?
A: 27.4 µM (active)

Q: Which EC50 [25] does the source give for `Cc1cc(C(=O)COC(=O)c2ccco2)c(C)n1Cc1ccccc1` here?
A: > 30 µM (not active)

Q: For `CCCC[C@H](CN[C@@H](CNC)[C@H](C)CC)NCCC12CCC(CC1)C2`, which IC50 [26] is on record?
A: 6.54 µM (active)

Q: What about the IC50 [27] of the same compound?
A: > 20 µM (inactive)

Q: For `N#Cc1ccc(Nc2nc(-c3ccc(O)cc3O)cs2)cc1`, which IC50 [28] is on record?
A: > 50 µM (not active)

Q: What about the IC50 [29] of the same compound?
A: 4.71 µM (active)
